From ChEMBL document CHEMBL4725449, “Brain Penetrable Inhibitors of Ceramide Galactosyltransferase for the Treatment of Lysosomal Storage Disorders” (ACS Med Chem Lett, 2020)

Experiments:
[1] = Ratio of drug concentration in brain to plasma in C57BL/6 mouse measured at 5 mins; type: ADME, organism-based; settings: read-out: BPR
[2] = Tmax in Sprague-Dawley rat at 3 mg/kg, po; type: ADME, organism-based; settings: in vivo
[3] = (§1) In vivo inhibition of GalCer de novo synthesis in PN14 to PN21 days C57BL/6 mouse brain assessed as reduction in [13C] galactose incorporation into GalCer at 3 mg/kg, po bid for 2 days and single dose at day 3 treated 1 hr prior to intraperitoneal injection of [13C] galactose measured after 5 hrs of last dose relative to control; type: functional; settings: C57BL/6, 72 h, time 3 day
[4] = target: T1, 2-hydroxyacylsphingosine 1-beta-galactosyltransferase (Mus musculus, UniProt Q64676); experiment: Inhibition of mouse UGT8 assessed as redcution in SFT accumulation
T1 sequence (Q64676 whole entry): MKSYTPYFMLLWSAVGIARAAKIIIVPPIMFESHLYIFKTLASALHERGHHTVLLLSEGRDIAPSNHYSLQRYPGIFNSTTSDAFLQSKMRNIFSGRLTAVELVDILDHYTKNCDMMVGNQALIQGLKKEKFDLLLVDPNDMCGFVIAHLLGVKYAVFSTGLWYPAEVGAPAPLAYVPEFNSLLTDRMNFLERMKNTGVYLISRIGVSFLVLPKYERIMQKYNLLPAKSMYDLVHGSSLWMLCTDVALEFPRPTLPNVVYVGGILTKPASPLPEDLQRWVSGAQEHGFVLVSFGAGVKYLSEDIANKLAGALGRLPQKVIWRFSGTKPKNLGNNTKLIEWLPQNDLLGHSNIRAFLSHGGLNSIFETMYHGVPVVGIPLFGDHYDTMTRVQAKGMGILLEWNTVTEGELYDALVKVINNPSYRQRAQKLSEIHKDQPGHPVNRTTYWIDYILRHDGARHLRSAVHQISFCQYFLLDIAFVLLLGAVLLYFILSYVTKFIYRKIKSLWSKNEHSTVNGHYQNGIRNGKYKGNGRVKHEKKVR

[5] = as §1, with “SFT” for “GalCer”; type: functional; settings: C57BL/6, 72 h, time 3 day
[6] = target: T2, UDP-glucuronosyltransferase 2B7 (Homo sapiens, UniProt P16662); experiment: Inhibition of UGT2B7 (unknown origin); type: ADME
T2 sequence (P16662 whole entry): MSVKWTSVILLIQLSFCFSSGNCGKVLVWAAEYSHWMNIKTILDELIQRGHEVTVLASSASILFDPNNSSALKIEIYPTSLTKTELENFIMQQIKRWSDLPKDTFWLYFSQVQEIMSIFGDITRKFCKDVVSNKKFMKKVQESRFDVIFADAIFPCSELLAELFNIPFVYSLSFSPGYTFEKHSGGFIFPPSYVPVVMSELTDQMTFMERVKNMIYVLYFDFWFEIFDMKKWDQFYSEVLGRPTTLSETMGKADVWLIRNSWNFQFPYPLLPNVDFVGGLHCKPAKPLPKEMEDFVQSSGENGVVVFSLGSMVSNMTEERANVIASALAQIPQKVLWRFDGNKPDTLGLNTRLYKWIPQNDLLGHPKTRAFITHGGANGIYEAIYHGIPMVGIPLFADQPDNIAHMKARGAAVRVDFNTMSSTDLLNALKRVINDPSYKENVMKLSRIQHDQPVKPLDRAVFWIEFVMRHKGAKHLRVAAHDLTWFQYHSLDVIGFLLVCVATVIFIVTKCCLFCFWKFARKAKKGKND

[7] = AUC (0 to last) in C57BL/6 mouse at 3 mg/kg, po; type: ADME, organism-based; set-up: time 0 - last, route oral, dose 3 mg/kg; settings: in vivo
[8] = Cmax in Sprague-Dawley rat at 3 mg/kg, po; type: ADME, organism-based; set-up: route oral, dose 3 mg/kg; settings: in vivo
[9] = target: T3, UDP-glucuronosyltransferase 2B15 (Homo sapiens, UniProt P54855); experiment: Inhibition of UGT2B15 (unknown origin); type: ADME
T3 sequence (P54855 whole entry): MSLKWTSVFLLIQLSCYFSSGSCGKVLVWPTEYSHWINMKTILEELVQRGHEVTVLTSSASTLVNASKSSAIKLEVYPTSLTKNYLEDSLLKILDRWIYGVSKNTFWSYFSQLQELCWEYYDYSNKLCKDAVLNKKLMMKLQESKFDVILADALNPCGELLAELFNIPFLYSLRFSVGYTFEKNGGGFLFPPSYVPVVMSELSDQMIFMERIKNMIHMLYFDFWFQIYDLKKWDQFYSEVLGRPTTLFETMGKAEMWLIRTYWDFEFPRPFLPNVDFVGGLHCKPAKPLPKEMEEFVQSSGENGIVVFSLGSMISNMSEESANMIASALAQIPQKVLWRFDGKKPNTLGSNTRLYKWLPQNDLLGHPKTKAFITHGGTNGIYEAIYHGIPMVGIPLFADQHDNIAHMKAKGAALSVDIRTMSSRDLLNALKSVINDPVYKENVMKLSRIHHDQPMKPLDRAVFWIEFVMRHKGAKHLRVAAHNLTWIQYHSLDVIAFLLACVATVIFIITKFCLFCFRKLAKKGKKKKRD

[10] = Oral bioavailability in Sprague-Dawley rat at 3 mg/kg; type: ADME, organism-based; settings: in vivo

Kp at 5 min [1]: 0.69
Tmax [2]: 49.8 min
IC50 [4]: 0.0003 µM
IC50 [6]: > 10 µM
AUC(0-t) [7]: 784 ng·h/mL
Cmax [8]: 405 ng/mL
IC50 [9]: > 10 µM
bioavailability [10]: 40%
SMILES: CNC(=O)c1csc2c(C(F)(F)F)cc(N3CCC(OC(=O)N[C@@H](C)COC(F)(F)F)CC3)nc12
inhibition in vivo at 3 mg/kg [3]: 90%
inhibition in vivo at 3 mg/kg [5]: 92%
